In US20020188010A1, “Compositions of matter containing L-glutamine and pyridoxal-alpha-ketoglutarate” (priority 2001, published 2002):

Columns and labels:
IBS (6 yrs duration) = assay: Improvement of IBS in patients given L-glutamine alone or L-glutamine/PAK; assay type: in vivo
Description: (§1) [table] While the compositions of the invention have been tested on patients suffering from disorders affecting the intestinal mucosa, the methods of the invention are appropriate for use in treating other diseases wherein stimulation of cell growth or repair of cells with natural rapid turn-over is desirable. Such diseases include, but are not limited to, leaky gut syndrome and other diseases of maldigestion, chronic fatigue syndrome, fibromyalgia, diabetes, thyroiditis and chronic viral disease. The combination therapy described herein will, by enhancing the growth and the repair of intestinal cells, increase the ability of the intestinal wall to reject and neutralize parasites and inhibit overgrowth of fungal organisms.

Ileitis (9 yrs duration) = assay: Improvement of ileitis in patients given L-glutamine alone or L-glutamine/PAK; assay type: in vivo
Description: as §1

NC(=O)CC[C@H](N)C(=O)O [L-glutamine]
percent of improvement upon administration of the L-glutamine alone (IBS (6 yrs duration); dose 3 gm L-glutamine): none
percent of improvement upon administration of the L-glutamine alone (IBS (6 yrs duration); dose 15 gm L-glutamine): 25%
percent of improvement upon administration of the L-glutamine alone (IBS (6 yrs duration); dose 30 gm L-glutamine): 45%
percent of improvement upon administration of the L-glutamine alone (IBS (6 yrs duration); dose 60 gm L-glutamine): 85%
percent of improvement upon administration of the L-glutamine alone (Ileitis (9 yrs duration); dose 3 gm L-glutamine): 5%
percent of improvement upon administration of the L-glutamine alone (Ileitis (9 yrs duration); dose 15 gm L-glutamine): 20%
percent of improvement upon administration of the L-glutamine alone (Ileitis (9 yrs duration); dose 30 gm L-glutamine): 50%
percent of improvement upon administration of the L-glutamine alone (Ileitis (9 yrs duration); dose 60 gm L-glutamine): 90%
